Results taken from patent US4097482A, “5-O-Cyanobenzyl-4,5,6,7-tetrahydro-thieno[3,2-c]pyridine maleate” (Centre d'Etudes Pour L'Industrie Pharmaceutique, priority 1975, dated 1978).

Key:
[1] = system: carrageenin-induced edema; assay: Anti-inflammatory action: localised carrageenin-induced edema method; assay type: in vivo; conditions: rats, 100 mg/kg orally 1 h before, with, 1 h and 2.5 hrs after carrageenin
Method: (a) Localised carrageenin-induced edema method: A 1% carrageenin solution (0.1 ml) is injected in the metatarsal flexor muscles of the right hind limb of rats at time 0. The animals of the treated group are additionally administered orally 100 mg/kg of the test derivative, respectively one hour prior to and then simultaneously with the injection of the phlogogenic agent, and then 1 hour and 2.5 hrs thereafter. The percent anti-inflammatory activity with reference to the reference group, as a function of time, is determined by measurements effected with a Roch micrometer at times 0, 1 hour, 2 hours, 3 hours and 5 hours after carrageenin administration. The results obtained with derivatives nos.

[2] = system: ovalbumin-induced systemic edema; assay: Anti-inflammatory action: ovalbumin-induced systemic edema method; assay type: in vivo; conditions: rats, 100 mg orally 1 hr prior to and with ovalbumin, vs control group
Method: (b) Ovalbumin-induced systemic edema method Rats are administered a simultaneous intraperitoneal injection of 1 ml ovalbumin and 0.5 ml of a 1°/.Salinity. aqueous Evans Blue solution. The animals of the treated group are additionally administered orally 100 mg of the test derivative, 1 hr prior to and simultaneously with ovalbumin administration. The intensity of the phenomenon thus induced is scored according to a scale from 1 to 5, according to the progress of the inflammatory syndrome. Thus are determined the mean intensity of the edema and the percent decrease of the edema reaction with respect to the control group.

[3] = Toxicological investigation: acute toxicity LD50 in mice, intravenous route; conditions: mouse, in vivo, per kg body weight

Row | SMILES | Percent anti-inflammatory activity after 1 hour [1] [%] | Percent anti-inflammatory activity after 2 hours [1] [%] | Percent anti-inflammatory activity after 5 hours [1] [%] | Percent decrease (of the edema reaction) after 2 hours [2] [%] | Percent decrease (of the edema reaction) after 3 hours [2] [%] | LD50 at 24 h [3] [mg/kg]
1 | Cl.c1cc2c(s1)CCN(Cc1ccc3c(c1)OCO3)C2 [Derivative no. 8, 5-(3,4-methylenedioxy-benzyl)-4,5,6,7-tetrahydro-thieno[3,2-c]pyridine hydrochloride] | 41 | 51 | 59 | 54 | 64 | 65
2 | COC(=O)c1ccccc1CN1Cc2ccsc2CC1C (stereo not drawn) [Derivative no. 3, 5-o-Methoxycarbonylbenzyl-6-methyl-4,5,6,7-tetrahydrothieno[3,2-c]pyridine] |  |  |  |  |  | 65
3 | Cl.Clc1ccc(CN2CCc3sccc3C2)s1 [Derivative no. 4, 5-[(5-Chloro-2-thienyl)-methyl]-4,5,6,7-tetrahydro-thieno[3,2-c]pyridine hydrochloride] | 39 | 47 | 54 | 48 | 53 | 165
4 | N#Cc1ccccc1CN1CCc2sccc2C1.O=C(O)/C=C\C(=O)O [Derivative no. 7, 5-o-cyanobenzyl-4,5,6,7-tetrahydrothieno[3,2-c]pyridine maleate] |  |  |  |  |  | 45
5 | OCc1ccccc1CN1CCc2sccc2C1 [Derivative no. 10, 5-o-hydroxy-methylbenzyl-4,5,6,7-tetrahydrothieno[3,2-c]pyridine] | 36 | 48 | 56 | 51 | 62 | 
6 | COC(=O)c1ccccc1CN1CCc2sccc2C1 [Derivative no. 1, 5-o-Methoxycarbonylbenzyl-4,5,6,7-tetrahydro-thieno[3,2-c]pyridine] | 43 | 50 | 55 | 51 | 58 | 92
7 | OC(CN1CCc2sccc2C1)c1cccs1 (stereo not drawn) [Derivative no. 5, 5-[2-hydroxy-2-(2-thienyl)-ethyl]-4,5,6,7-tetrahydro-thieno[3,2-c]pyridinefumarate] | 45 | 53 | 59 | 50 | 61 | 75
8 | O=C(O)c1ccccc1CN1CCc2sccc2C1 [Derivative no. 2, 5-o-Carboxybenzyl-4,5,6,7-tetrahydro-thieno[3,2-c]pyridine] |  |  |  |  |  | 300
9 | Cl.Clc1ccccc1C=CCN1CCc2sccc2C1 [Derivative no. 6, 5-(3-o-chlorophenyl-2-propenyl)-4,5,6,7-tetrahydro-thieno[3,2-c]pyridine hydrochloride] |  |  |  |  |  | 60
